Results on 4 molecules are retold here after patent publication US6747038B2, “Phenanthridine derivatives and antitumoral medicaments containing phenanthridine” (priority 2000, dated 2004).

For this assay, the system named is panel of 12 human pathogenic tumour cell lines of six types of cancer. Put plainly: in vivo-hollow fiber assay of the National Cancer Institute. As to conditions: for NCI criteria fulfilled: (a) total points higher than 20, (b) subcutaneous points higher than 8, (c) cell kill characteristics; for Points (sum) / Points (intraperitoneal) / Points (subcutaneous): NCI point system; for Points (sum): 2 points per administration giving at least 50% reduction of tumour cell growth, maximum 96, hollow fibers in nude mice, intraperitoneal plus subcutaneous, 4 doses at 24 h intervals, two concentrations; for Points (intraperitoneal): intraperitoneally implanted hollow fibers in nude mice; for Points (subcutaneous): subcutaneously implanted hollow fibers in nude mice; for Cell killing properties: vital tumour cell mass of at least one cell line less than the starting value after treatment. As for the experimental part: In order to examine the pharmacological properties, these compounds (BP-7, BP-8, BP-D8) as well as 6-Amino-11-(2′,4′-dimethoxyphenyl)benzo[c]-phenanthridine perchlorate (BP-D3) [PCT/WO 97/14683] were examined in an “in vivo-hollow fiber assay” of the National Cancer Institute (NCI), Bethesda, Md., USA.
Compounds were tested against a panel of 12 human pathogenic tumour cell lines of six types of cancer (non-small cell lung cancer, melanoma, breast cancer, ovarian cancer, colon cancer, CNS cancer).
The cell lines were cultivated in polyvinylidenfluorine hollow fibers which are permeable to small molecules and which were implanted into nude mice. Three hollow fibers were implanted every animal intraperitoneally and subcutaneously which means three tumor cell lines could be examined in each animal in two physiological sites.
The animals were treated four times with a dose of the test substance with a time interval of 24 hours. For this purpose, every compound was administered at two concentrations. At the end of the treatment the hollow fibers were regained and the number of the vital tumour cells or rather of the protein biomass was determined photometrically by an MTT-Formazan-Assay in order to determine the inhibition of growth by the phenanthridines. Mice with prepaired tumour cell cultures in hollow fibers which were only treated by solvent served as control.
The evaluation of test results is based on a point system given by NCI.
Each administration of a test substance which leads to a reduction of the tumour cell growth of at least 50% is given a score of two points. The maximum number of points for one compound is therefore 96 points (12 cell lines*2 implantation sites*2 concentrations of the test substance*2 points). In addition for further specification the results on subcutaneously and intraperitoneally implanted hollow fibers are treated separately. There are three criteria given by NCI. A test substance in the “in vivo-hollow fiber assay” has to fulfill at least one criterion in order to be regarded as suitable for further tests:
(a) the total sum of the points from intraperitoneal and subcutaneous application must be higher than 20.
(b) The total sum of the points of the subcutaneous application must be higher than 8.
(c) After the treatment the vital tumour cell mass of at least one cell line must be less than the starting value (cell kill characteristics).

Structures can show the parent of a compound that is named as a salt.

In the case of `COc1cc(C2Cc3ccccc3-c3nc(N)c4ccccc4c32)cc(OC)c1OC` (stereo not drawn) [BP-7, 6-Amino-11,12dihydro-11-(3′,4′,5′-trimethoxyphenyl)benzo[c]-phenanthridine hydrochloride], the NCI criteria fulfilled entry was “(b) and (c)”; the “Points (sum)” value is given as 16 Points; the “Points (intraperitoneal)” value is 6 Points; the “Points (subcutaneous)” value is given as 10 Points. Further, the Cell killing properties entry is “Yes”.
For the molecule `COc1ccc(C2Cc3ccccc3-c3nc(N)c4ccccc4c32)c(OC)c1OC` (stereo not drawn) [BP-8, 6-Amino-11,12dihydro-11-(2′,3′,4′-trimethoxyphenyl)benzo[c]-phenanthridine hydrochloride], the NCI criteria fulfilled result is “(b) and (c)”; the “Points (sum)” value came to 20 Points; the “Points (intraperitoneal)” value came out at 10 Points; the “Points (subcutaneous)” value came to 10 Points. Moreover, the Cell killing properties entry is reported as “Yes”.
With `COc1ccc(-c2cc3ccccc3c3nc(N)c4ccccc4c23)c(OC)c1.[O-][Cl+3]([O-])([O-])O` [BP-D3, 6-Amino-11-(2′,4′-dimethoxyphenyl)benzo[c]phenanthridine perchlorate, reference compound], the NCI criteria fulfilled result is given as “(c) only”, the “Points (sum)” value is given as 10 Points, the “Points (intraperitoneal)” value is 2 Points and the “Points (subcutaneous)” value was found to be 8 Points. The Cell killing properties result was “Yes”.
With `COc1cc(-c2cc3ccccc3c3nc(N)c4ccccc4c23)cc(OC)c1OC` [BP-D7, 6-Amino-11-(3′,4′,5′-trimethoxyphenyl)benzo[c]phenanthridine perchlorate], the NCI criteria fulfilled entry is “a, b and c”; the “Points (sum)” value was determined as 28 Points; the “Points (intraperitoneal)” value was 14 Points; the “Points (subcutaneous)” value turned out to be 14 Points. Moreover, the Cell killing properties entry is given as “Yes”. For the same molecule, the “activity in the in vivo-hollow fiber assay” value (compared with all tested phenanthridines) is “highest activity”.
